The text below walks through data of patent US5955616A, “Pyrrolidine derivatives having phospholipase A2 inhibitory activity” (Shionogi & Co., Ltd., priority 1995, dated 1999).

Assay [1] concerns the target T1, cPLA2 (Homo sapiens, UniProt P47712).
T1 sequence (P47712 1-749): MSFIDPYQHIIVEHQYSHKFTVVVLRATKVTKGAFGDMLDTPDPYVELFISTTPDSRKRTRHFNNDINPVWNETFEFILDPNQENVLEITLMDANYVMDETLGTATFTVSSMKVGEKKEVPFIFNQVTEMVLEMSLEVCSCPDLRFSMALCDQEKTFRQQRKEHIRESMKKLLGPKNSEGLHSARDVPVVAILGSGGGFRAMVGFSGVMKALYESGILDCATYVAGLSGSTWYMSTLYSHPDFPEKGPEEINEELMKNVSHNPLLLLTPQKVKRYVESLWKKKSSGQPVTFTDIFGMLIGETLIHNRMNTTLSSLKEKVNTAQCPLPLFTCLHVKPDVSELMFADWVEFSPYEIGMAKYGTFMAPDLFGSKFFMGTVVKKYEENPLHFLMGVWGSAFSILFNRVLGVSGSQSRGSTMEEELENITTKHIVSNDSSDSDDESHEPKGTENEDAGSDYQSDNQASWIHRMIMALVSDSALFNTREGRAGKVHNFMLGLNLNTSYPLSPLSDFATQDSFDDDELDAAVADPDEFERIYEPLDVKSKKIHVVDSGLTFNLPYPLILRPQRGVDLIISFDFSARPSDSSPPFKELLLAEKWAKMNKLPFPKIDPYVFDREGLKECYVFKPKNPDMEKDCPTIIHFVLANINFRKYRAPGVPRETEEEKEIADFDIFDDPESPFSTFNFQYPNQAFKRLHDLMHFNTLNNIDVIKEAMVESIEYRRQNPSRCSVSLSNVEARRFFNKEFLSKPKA
The experiment in a line: cPLA2 Inhibitory activity (release of radiolabelled fatty acid from liposomes). The assay is classed as biochemical. Particulars: 50 mM HEPES pH 7.4, 1 mM CaCl2, 2.5 μM radio-labeled phosphatidylcholine, 15 min at 37° C; read-out: cPLA2 Inhibition Activity IC50. The method, boiled down: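 Enzyme (4 ng) reacted 15 min at 37 °C with sonicated liposomes bearing 2.5 μM 14C-arachidonoyl PC (2:1 with dioleoylglycerol) in pH 7.4 HEPES containing Ca2+, DTT, NaCl and BSA. Test compound at 250, 50, 10, 2 and 0.4 μM. IC50 derived from scintillation-counted fatty acid release versus no-compound control.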

The subject of assay [2] is Prostaglandin E2 production in human fibroblasts. The experiment in a line: Inhibition of Production of Prostaglandin E2 in Human Fibroblasts (IL-1 stimulated). Type of assay: cell-based. Particulars: Fibroblast, stimulation with IL-1, read-out: Inhibitory activity Against the Production of Prostaglandin E2 in Human Fibroblasts IC50. As for the experimental part:
Experiment 2 Inhibition of Production of Prostaglandin E2 in Human Fibroblasts
From this viewpoint, the compounds of the present invention were tested for the effect on the production of prostaglandin E2 by human fibroblasts under the stimulation with IL-1 according to the method of J. M. Dayer et al (CACHECTIN/TUMOR NECROSIS FACTOR STIMULATES COLLAGENASE AND PROSTAGLANDIN E2 PRODUCTION BY HUMAN SYNOVIAL CELLS AND DERMAL FIBROBLASTS; J. M. Dayer, B. Beutlerm and A. Cerami, J. Exp. Med., 162,2163-2168, 1985).

With `O=C1NC(=O)/C(=C/c2ccc(C(=O)NC[C@@H]3C[C@H](OCc4ccc(-c5ccccc5)cc4)CN3C(=O)c3ccc(Cn4sccc4=O)cc3)cc2)S1` [Compound H-9], the IC50 in assay [1] is 2 µM; in assay [2] it was 9.6 µM.
On the same counts, the results for `O=C1NC(=O)/C(=C/c2ccc(C(=O)NC[C@@H]3C[C@H](OC(c4ccccc4)c4ccccc4)CN3C(=O)c3ccc(CN4CCCC4=O)cc3)cc2)S1` [Compound H-10] are 10 µM and 2.4 µM.
On the same counts, the results for `N#CC(=S)Nc1ccc(C(=O)N2C[C@@H](OC(c3ccccc3)c3ccccc3)C[C@H]2CNC(=O)c2ccc(/C=C3\SC(=O)NC3=O)cc2)cc1` [Compound H-11] are 4.3 µM and 8.5 µM.
For `CC(=O)Oc1ccc(O)cc1CCCCCCC(=O)N1C[C@@H](OC(c2ccccc2)c2ccccc2)C[C@H]1CNC(=O)c1ccc(/C=C2\SC(=O)NC2=O)cc1` [Compound H-16], in that order: 4.3 µM and 1.9 µM.
Turning to `O=C1C=CC(=O)C(CCCCCCC(=O)N2C[C@@H](OC(c3ccccc3)c3ccccc3)C[C@H]2CNC(=O)c2ccc(/C=C3\SC(=O)NC3=O)cc2)=C1` [Compound H-17], the IC50 is 4.9 µM in assay [1] and 7 µM in assay [2].
Regarding `O=C1NC(=O)/C(=C/c2ccc(C(=O)NC[C@@H]3C[C@H](OCc4ccc(F)cc4F)CN3C(=O)CCCCCCC3=CC(=O)c4ccccc4C3=O)cc2)S1` [Compound H-18], the IC50 was 11 µM in assay [1] and 1.5 µM in assay [2].
Turning to `O=C1NC(=O)C(=Cc2ccc(C(=O)NC[C@@H]3C[C@H](NC(=O)c4ccc(Cn5sccc5=O)cc4)CN3S(=O)(=O)c3ccc(-c4ccccc4)cc3)cc2)S1` [Compound J-2], the IC50 in assay [1] is 2.9 µM; in assay [2] it was 9.7 µM.

As usually defined, the IC50 is the concentration at which inhibition is half-maximal.
